Consider two molecules from patent US20060069039A1, “Treatment of dyskinesia” (priority 2002, published 2006).

Each structure is given as a SMILES string. Counter-ions that a name gives are not always drawn.

In one data set the test system is MPTP-lesioned marmosets. The data set is described as follows: L-DOPA-induced dyskinesia and parkinsonian disability in the MPTP-lesioned marmoset model of Parkinson's disease. It counts as in vivo, marmosets (Callithrix jacchuis). To be noted: topiramate oral plus L-DOPA 15 mg/kg, n=6. From the text: The MPTP-lesioned primate represents the best animal model of Parkinson's disease and L-DOPA-induced dyskinesia, the most common form of dyskinesia encountered in the clinical situation. The pathology, symptomatology and response of symptoms to treatments and production of side effects following treatment are very similar in the MPTP-lesioned primate to those seen in Parkinson's disease patients. Thus, when untreated, MPTP-lesioned primates show parkinsonian symptoms such as reduced range of movement, reduced speed of movement (bradykinesia) and an abnormal, hunched, parkinsonian posture. […] A study was performed on six adult marmosets (Callithrix jacchuis) to assess the ability of topiramate to reduce dyskinesia, specifically L-DOPA-induced dyskinesia. The marmosets were rendered parkinsonian by subcutaneous injection of 2 mg/kg MPTP for 5 consecutive days. […] The degree of activity and disability before and after MPTP treatment were assessed using a combination of scales that measure locomotor activity, mobility, bradykinesia and posture (see below). […] Behavior was assessed for 6 hours post drug administration. […] Data were collected for each one hour time period for severity of dyskinesia and were analyzed with a Wilcoxon matched pairs test (the software used was Prism version 3.0, GraphPad Software Inc). […]

The conditions of data set [1]: cited from earlier work.
The next data set concerns essential tremor. To be noted: clinical trial; cited from earlier work.

Consider `CC1(C)O[C@@H]2[C@@H](CO[C@@]3(COS(N)(=O)=O)OC(C)(C)O[C@@H]23)O1` [Topiramate, 2,3:4,5-bis-O-(1-methylethylidene)-β-D-fructopyranose sulfamate], for which the “dyskinesia following topiramate and L-DOPA in comparison to L-DOPA alone” value in the data set on MPTP-lesioned marmosets (Wilcoxon P<0.05 at 0-1 h and 1-2 h, P>0.05 at 2-3 h) is listed as “less dyskinesia”. For the same molecule, the “effect on the anti-Parkinsonian action of L-DOPA (parkinsonian disability)” value in the data set on MPTP-lesioned marmosets (Wilcoxon P>0.05) was “without major effect”. The “solubility in alkaline solutions” value in data set [1] (alkaline solutions containing sodium hydroxide or sodium phosphate, pH of 9 to 10) is “most soluble”. Also, the “solubility in acetone, chloroform, dimethylsulfoxide and ethanol” value in data set [1] (organic solvents) is reported as “freely soluble”. For the same molecule, the “pH of saturated solution” value in data set [1] (saturated solution) is 6.3. In addition, the “mean improvement in tremor” value in the data set with essential tremor is 25%.

As for `CCN(CC)CCNC(=O)c1cc(Cl)c(N)cc1OC` [Metoclopramide hydrochloride, 4-amino-5-chloro-N-[2-(diethylamino)ethyl]-2-methoxy benzamide monohydrochloride monohydrate], the “solubility in water” value in data set [1] (water) was “freely soluble”.
